In patent US20050143346A1, “Composition for treating cancer containing n,n-dimethylphytosphingosine” (priority 2002, published 2005):

Key:
[1] = tested on: HL60 cells; experiment: DNA fragmentation by agarose gel electrophoresis; format: cell-based; conditions: 24 hrs, FIG. 9
Description: DNA fragmentation as a representative characteristic of apoptosis was assessed at a level of concentration including cytotoxicity. Apoptosis is a programmed cell death, characterized by complicate biological characteristics including morphological changes, chromatin condensation, a formation of apoptotic body and the like. This experiment was performed to assess DNA fragmentation among them. HL60 cells were seeded (1×10^7 cell/10 ml), and incubated in 5% CO2 incubator at 37° C. for 24 hrs. Then, N,N-dimethylphytosphingosine and control substances (at concentration indicated in FIG. 9) was added and incubated for 24 hrs. All of substances were dissolved in EtOH. Cells were recovered by centrifugation, and then cell membrane was disrupted by adding lysis buffer (5 mM Tris-HCl (PH 7.4), 20 mM EDTA, 0.5% Triton X-100). After centrifuging at 12,000 rpm for 10 min, supernatant in which DNA fragments were dissolved was recovered. To the supernatant was added equivalent amount of phenol, vortexed, centrifuged at 12,000 rpm for 10 min, and then supernatant was recovered carefully. DNA extraction with phenol:chloroform:isoamylalcohol (25:24:1) or chloroform was performed in a same manner as the method with phenol. To the supernatant which was treated by various solvents was added a solution of 0.3 M sodium acetate (pH 5.2) in EtOH, and precipitated in a freezer at −20° C. for 24 hrs. After centrifuging at 12,000 rpm for 10 min, supernatant was decanted to obtain DNA pellets. 70% EtOH was added to the remaining DNA pellets to wash them. Again, after centrifuging, supernatant was discarded, the remaining DNA fragments were dissolved in TE buffer. To remove RNA in addition-to DNA fragments, […] of 0.5 mg/ml RNAse was added, and reacted at 37° C. for 30 min. DNA fragmentation was found by 1.2% agarose gel electrophoresis. […] N-acylsphingosine was known as apoptosis inducing substance, and DNA fragmentation was one example of such effects. […] Accordingly, it is considered that N,N-dimethylphytosphingosine of the present invention has excellent apoptosis inducing effect compared to N-acylsphingosine. It was not observed that CLA ceramide belonging to sphingosineceramide induced DNA fragmentation.
The following is the meaning of the symbols used in FIG. 9. • SM: DNA size marker • EtOH: Ethanol • 1: DMPS 12.5 μM • 2: DMPS 25.0 μM • 3: DMPS 50.0 μM • 4: C2 ceramide 25.0 μM • 5: C2 ceramide 50.0 μM • 6: CLA ceramide 25.0 μM • 7: CLA ceramide 50.0 μM

[2] = tested on: HL60 cell; experiment: MTT assay, apoptosis inducing effect on HL60 cell; format: cell-based; conditions: 0.5 M˜[…], 24 hrs, FIG. 4
Description: An apoptosis inducing effect of N,N-dimethylphytosphingosine was assayed. Anti-cancer effect is expressed through various signal transduction pathway depending on working mechanism and chemical structure, but consequently give rise to apoptosis which allows cells to be killed.
(§1) This experiment was performed by MTT assay. MTT (3-[4,5-Dimethylthiazol-2-yl]-2,5-diphenyltetrazolium) is a staining reagent displaying yellow color when it is dissolved in medium, but it is discolored to violet formazan by active dehydrogenase in mitochondria of viable cell. […] HL60 cell lines were seeded to 96-well plate at appropriate concentration, and incubated in 5% CO2 incubator at 37° C. for 24 hrs. Thereafter, individual sample to be assessed on apoptosis effect, i.e. phytosphingosine, C2 phytoceramide, tetraacetylphytosphingosine, C6 phytoceramide, C8 phytoceramide, C3 ceramide, sphinganine, dimethylsphingosine and dimethylphytosphingosine was diluted with serum free RPMI. Cells were treated with […]˜50 µM of the dilutions, and incubated for 24 hrs. MTT (final concentration: 0.5 mg/ml) was loaded to the individual well. After incubating for another 3 hrs and dissolving the staining reagent with pipette, the absorbance was measured at 570 nm.

[3] = tested on: MDA-MB-231 cell; experiment: MTT assay, apoptosis inducing effect on MDA-MB-231 cell; format: cell-based; conditions: FIG. 8
Description: as §1
This Experiment was carried out in an identical manner to that described for example 3, except for using MDA-MB-231 cell to induce apoptosis.

[4] = tested on: HaCaT cell; experiment: MTT assay, apoptosis inducing effect on HaCaT cell; format: cell-based; conditions: FIG. 5
Description: as §1
This Experiment was carried out in an identical manner to that described for example 3, except for using HaCaT cell to induce apoptosis.

[5] = tested on: LLC-PK1 cell; experiment: MTT assay, apoptosis inducing effect on LLC-PK1 cell; format: cell-based; conditions: FIG. 6
Description: as §1
This Experiment was carried out in an identical manner to that described for example 3, except for using LLC-PK1 cell to induce apoptosis.

[6] = tested on: Bacillus licheniformis; experiment: Antibacterial effect, colony counting; format: cell-based; conditions: B. licheniformis, FIG. 12
Description: (§2) The present inventors performed experiment using Bacillus licheniformis (Gram positive bacteria) and E. coli(Gram negative bacteria) to test an antibacterial activity of N,N-dimethylphytosphingosine. In this experiment, autoclaved LB (bactopeptone 10 g/l, yeast extracts 5 g/l, and sodium chloride 10 g/l) or TS (triptone 15 g/l, soitone 5 g/l, and sodium chloride 5 g/l) was used as culture medium, and cultured at 30° C. or 37° C. for 2-3 days. After culturing, an antibacterial capacity was measured by counting the number of cells. […] Each microbe was cultured, diluted successively with 10-fold, smeared on the medium, cultured again, and then dilution rate which formed 30-300 populations per plate medium was determined. After culturing each microbe, the culture was diluted with the determined dilution rate. At this time, 0.85% NaCl was used as a diluted solution. A sample which was prepared by above mentioned method was diluted successively with a solvent for preparing the sample. After obtaining the desired concentration, 1 ml of the diluted sample was added to 9 ml of a diluted solution of microbes, and then mixed thoroughly. After standing at 30° C. or 37° C. for 1 hr (with mixing occasionally), each 100 μl was smeared on the culture medium. After culturing under individual condition, the number of population was measured.

[7] = tested on: E. coli; experiment: Antibacterial effect, colony counting; format: cell-based; conditions: FIG. 12
Description: as §2

[8] = tested on: protein kinase C(PKC); experiment: PKC inhibition effect using epidermis cells of rat; format: cell-based; conditions: 100 μM and 400 μM; compared with other sphingolipid derivatives; FIG. 11
Description: The present inventors assessed an inhibitory effect of N,N-dimethylphytosphingosine on protein kinase C(PKC) using epidermis cells of rat. Epidermis cells were cultured to 2×10^7 cell/ml. N,N-dimethylphytosphingosine and other sphingolipid derivatives (100 μM and 400 μM respectively) were added, and reacted. The cells were washed with PBS and disrupted with homogenizer. The disruption of cells was centrifuged, and the supernatant was passed through DE52 column to obtain a portion containing protein kinase C. For activated PKC reaction, a tube containing 5 μl of PKC coactivation 5× buffer, PKC activation 5× buffer, PKC biotinylated peptide substrate, [32P]ATP mix respectively were prepared as a control. Also, other individual tubes containing 5 μl of PKC coactivation 5× buffer, control 5× buffer, PKC biotinylated peptide substrate, [32P]ATP mix were prepared further containing 5 μl of the relevant enzyme in each tube. The reaction was performed at 30° C. for 5 min. Thereafter, terminating solution (12.5 μl) was added to quench the reaction. The reaction solution (10 μl) was dropped on SAM2™ membrane, washed with 2 M NaCl (1×, 30 seconds), 2 M NaCl (3×, 2 min), 1% H3PO4 and 2M NaCl solution (4×, 2 min), and distilled water (2×, 30 seconds), dried and then measured isotope to assess the effect of PKC inhibition. The results were in FIG. 11. […]

[9] = tested on: sphingosine kinase from mouse; experiment: Inhibition of sphingosine kinase activity ([32P]ATP, sphingosine-1-phosphate formation); format: biochemical; conditions: compared with dimethylsphingosine; 37° C. for 20 min; FIG. 3
Description: The same experiment was performed on dimethylsphingosine to compare with the effect of dimethylphytosphingosine of the present invention. Sphingosine kinase assay buffer was prepared as follows to determine an activity of sphingosine kinase: 20 mM Tris buffer, pH 7.2, 10 mM MgCl2, 20% glycerol, 1 mM dithiothreitol, 1 mM Na3VO4, 15 mM NaF, […] leupeptin and aprotinin, 1 mM PMSF and 0.5 mM 4-deoxypyridoxine.
The reaction was 200 μl, each 50 μM dimethylsphingosine and dimethylphytosphingosine dissolved in 0.25% Triton X-100, 10 ng of sphingosine kinase from mouse and 1 mM [32P] ATP were added, and reacted at 37° C. for 20 min. After completion of the reaction, the reaction was terminated by adding 20˜50 μl of 1N HCl. Following termination, lipid was separated and purified by adding 1 ml of chloroform, and dried under nitrogen gas. An inhibitory effect against sphingosine kinase was found by measuring isotope with scintillation counter and then determining produced sphingosine-1-phosphate. In the graph, indicated in FIG. 3, Y axis represents CPM and X axis represents concentration (μM).

[10] = tested on: B104 cell; experiment: MTT assay, apoptosis inducing effect on B104 cell; format: cell-based; conditions: FIG. 7
Description: as §1
This Experiment was carried out in a manner identical to that described for example 3, except for using B104 cell to induce apoptosis.

[11] = tested on: histone component presented in nucleosome of cytoplasm of cell lysates; experiment: Anti-histone antibody binding ELISA (mono- or oligosome detection); format: cell-based; conditions: FIG. 10
From the text: This experiment was based on the theory of ELISA. Briefly, Mono- or oligosome of degraded nucleic acid in cytoplasm can be detected by means of monoclonal antibodies which are specific for histones (H2A, H2B, H3 and H4) and single-stranded or double-stranded DNA. Cells which apoptosis was induced activated Ca2+ and Mg2+-dependent endonuclease, and the enzyme degraded adjacent double stranded DNA to form mono- or oligosome. On this account, histone which had been compactly bound to the DNA in nucleus was exposed to outside.
First, anti-histone antibody was immobilized to 96 well plate. Coating solution was added, and reaction was performed at ambient temperature for 1 hr. Then, each sample was treated to obtain cell lysates, and histone component presented in nucleosome of cytoplasm of cell lysates was adhered to the 96 well plate to which anti-histone antibody was immobilized. Above procedure was performed at 15˜25° C. for 90 min. Then, anti-DNA-peroxidase (POD) was bound to DNA part of nucleosome of cytoplasm. This procedure was performed at ambient temperature for 90 min. Unbound peroxidase conjugate was washed, ABTS(2,2′-azino-di-[3-ethylbenzthiazoline sulfonate]) was added as an substrate, reacted for 10˜20 min, and then absorbance was measured at 405 nm.

CCCCCCCCCCCCC/C=C/[C@@H](O)[C@H](CO)NC(C)=O [C2-ceramide, N-acylsphingosine, reference compound]
concentration at which DNA fragmentation was induced [1]: 25.0 µM

CCCCCCCCCCCCCCC(O)C(O)C(CO)N(C)C (centres unmarked) [N,N-dimethylphytosphingosine]
cell death (MTT assay) [2]: induced cell death
cell death (MTT assay) [3]: induced cell death
cell death effect compared to dimethylsphingosine [3]: far superior to that of dimethylsphingosine
cell death (MTT assay) [4]: induced cell death
cell death effect compared to dimethylsphingosine [4]: far superior to that of dimethylsphingosine
cell death (MTT assay) [5]: induced cell death
cell death effect compared to dimethylsphingosine [5]: far superior to that of dimethylsphingosine
amount of colonies reduced to ([6]; 1 μg/ml): 40%
number of colonies [6]: reduced
amount of colonies reduced to ([7]; 1 μg/ml): 40%
number of colonies [7]: reduced
inhibitory effect on PKC [8]: stronger inhibitory effect than any other compound
inhibitory effect against sphingosine kinase (produced sphingosine-1-phosphate, CPM) [9]: more strong inhibitory effect than that of dimethylsphingosine
DNA fragmentation (electrophoresis), result in words ([1]; DMPS 12.5-50.0 μM, C2 ceramide and CLA ceramide 25.0 and 50.0 μM): obvious ladder-like DNA fragmentation at a lower concentration compared to C2-ceramide
concentration at which DNA fragmentation was induced [1]: 25.0 µM
degree of DNA fragmentation compared to C2 ceramide [1]: stronger than C2 ceramide
cell death (MTT assay) [10]: induced cell death
cell death effect compared to dimethylsphingosine [10]: far superior to that of dimethylsphingosine
absorbance (A405 nm-A490 nm), anti-histone antibody binding [11]: higher absorbance (A405 nm-A490 nm) than other controls
